Consider 70 compounds from PubChem BioAssay AID179 (DTP/NCI, 2004).

Active and inactive are the calls of the source.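 Rule for the calls: active = compounds giving half or more protection of infected cells from virus-caused growth loss, again on retest; inactive = the rest.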 Where only a bound is given, the exact number is not on record here.

The test system of this assay is CEM cells HIV-1 protection, formazan growth assay. The assay is described as follows: NCI AIDS Antiviral Assay. The note with it: for IC50: measured here: growth of uninfected CEM cells. In outline: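 Human CEM cells, uninfected and HIV-1-infected, exposed to five drug concentrations; growth measured by soluble formazan assay and scored as percent protection from infection, with protecting compounds retested.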

For `O=S(=O)(O)c1cc(O)c2c(O)cc(S(=O)(=O)O)c(N=Nc3ccc(/C=C/c4ccc(N=Nc5c(S(=O)(=O)O)cc(O)c6c(O)cc(S(=O)(=O)O)cc56)cc4S(=O)(=O)O)c(S(=O)(=O)O)c3)c2c1`, the EC50 (usually the concentration that produces a half-maximal response) was 15.5 µM and the 50% inhibitory concentration (IC50) (as a rule, the concentration at which inhibition is half-maximal) was 75.9 µM. On to `O=C(NN=C1CCCCC1)NN=C1CCCCC1`, for which the EC50 is > 100 µM and the IC50 was > 100 µM. As to `CC(C)CCC[C@@H](C)[C@H]1CC[C@H]2[C@@H]3CC[C@H]4C[C@@H](CCC=C(c5cc(Cl)c(OCc6ccc(C(=O)O)cc6)c(C(=O)O)c5)c5cc(Cl)c(OCc6ccc(C(=O)O)cc6)c(C(=O)O)c5)CC[C@]4(C)[C@H]3CC[C@]12C`, the 50% effective concentration (EC50) is 2.51 µM and the half-maximal inhibitory concentration (IC50) was determined as 50.1 µM. The like results for `COC(=O)c1cc(C)ccc1C1CN=NC12Cc1c(C)cc(C)cc1C2=O` (stereo not drawn) were, in that order, > 200 µM and 29.5 µM.

Consider `Cc1[nH]c(=O)[nH]c(=O)c1Cl`, for which the outcome was inactive. Turning to `NCCS`, the EC50 is > 1410 µM and the IC50 was 525 µM. Regarding `Cc1cc(C)c2c(c1)N[S@@](=O)S2`, the EC50 is > 13.5 µM and the IC50 is > 13.5 µM. `COC(=O)C(=O)C(C(=O)C(=O)Nc1ccc(C)cc1C)c1nc2ccccc2[nH]c1=O` (stereo not drawn): the EC50 is > 23.4 µM and the IC50 was > 23.4 µM. Take `COC(=O)C1CC2(c3ccccc3)C(=O)c3ccccc3N2O1` (stereo not drawn): the outcome was inactive.

In the case of `CC(=O)c1ccc(NC(=O)/C(CC(=O)c2sc(-c3cccnc3)nc2C)=N/NC(N)=O)cc1`, the EC50 was > 21.4 µM and the half-maximal inhibitory concentration (IC50) was > 21.4 µM.

Regarding `CCOCNC(=O)N(COCC)COCC`, the EC50 is > 398 µM and the IC50 was > 398 µM.

For `COc1ccc(CC2NCCc3cc(OC)c(OC)cc32)cc1` (stereo not drawn), the EC50 was > 794 µM and the IC50 came to 138 µM. The like results for `CCc1cccc(CC)c1NC(=O)C(C#N)C1=C(Cl)C(=O)c2ccccc2C1=O` (stereo not drawn) were, in that order, > 17.8 µM and 11.5 µM.

As for `Cc1cc(Cl)ccc1NC(=O)CCCC(=O)C1CCC/C1=N\NC(=O)CC#N` (stereo not drawn), the EC50 was > 64.6 µM and the IC50 was > 64.6 µM.

For the compound `O=C(O)c1ccc(CSc2ccccc2)c([N+](=O)[O-])c1`, the EC50 was > 631 µM and the IC50 stood at 245 µM. The like results for `CC(=O)OCC1OC(N2C(=O)NC(=O)C3C=C4CCCCC4=CC32)CC1OC(C)=O` (stereo not drawn) were, in that order, > 200 µM and 117 µM. The like results for `CN(C)Cc1cc(C(=O)/C=C/c2ccc(Br)cc2)cc(CN(C)C)c1O` were, in that order, > 200 µM and 4.47 µM. The like results for `CC(C)(C)OC(=O)NC(CSCc1ccc(C(=O)c2ccccc2)cc1)C(=O)O` (stereo not drawn) were, in that order, > 200 µM and 50.1 µM. For `CC(C)(C)c1ccc(O)c(C(O)c2ccncc2)c1` (stereo not drawn), the EC50 is > 200 µM and the IC50 is 79.4 µM. Take `CCc1ccccc1NC(=O)C1=C(C)NC(C)=C(C(=O)Nc2c(CC)cccc2CC)C1c1ccc2c(c1)OCO2` (stereo not drawn): the EC50 is > 33.9 µM and the IC50 was > 33.9 µM. On to `CCc1cccc(C(C)CC)c1NC(=O)C(=O)C(CC(=O)Nc1ccc(Cl)c(Cl)c1)C(=O)OC` (stereo not drawn), for which the EC50 is > 186 µM and the IC50 was > 186 µM. Regarding `Cc1nc(N)nc(N)c1N1CCN(c2ccc(C#N)cc2)CC1`, the EC50 is > 100 µM and the IC50 was > 100 µM. On to `COC1=CC(=O)C2[C@H]3Cc4ccccc4[C@H]3C2(C)C1=O` (stereo partly drawn), for which the EC50 is > 51.3 µM and the IC50 is > 51.3 µM. For the compound `CC(O)CCNc1nnc2c3ccccc3n(C)c2n1` (stereo not drawn), the EC50 was > 200 µM and the 50% inhibitory concentration (IC50) was > 200 µM. Turning to `CC(C)NC(=O)OCc1nnn2c1CCC2`, the outcome was inactive.

Regarding `CCCCN(CCCC)CCCCNc1c(C)cnc2cc(Cl)ccc12`, the EC50 was > 26.9 µM and the IC50 was 9.33 µM. The like results for `O=C1CC(Br)C(c2ccccc2)(c2ccccc2)O1` (stereo not drawn) were, in that order, > 81.3 µM and > 81.3 µM. Consider `C=CCOC1OC(CO[Si](C)(C)C(C)(C)C)C(OCc2ccccc2)C(OCc2ccccc2)C1OCc1ccccc1` (stereo not drawn), for which the outcome was inactive.

On to `COc1cc([C@@H]2c3cc4c(cc3C(N)C3COC(=O)[C@@H]32)OCO4)cc(OC)c1O` (stereo partly drawn), for which the result was inactive. In the case of `N#C/C=C/c1ccc2ccccc2c1`, the EC50 is > 40.7 µM and the IC50 was > 40.7 µM. `CC(=O)N(CC1CCCN(C)C1)C1C2CC3CC(C2)CC1C3` (stereo not drawn): the EC50 is > 117 µM and the IC50 amounted to 46.8 µM. As for `[N-]=[NH+]CC(=O)OC(COCc1ccccc1)COCc1ccccc1`, the EC50 is > 200 µM and the IC50 turned out to be 117 µM. The like results for `CC1=CO[C@@H]2O[C@@]3(C)CC[C@H]4[C@H](C)CC[C@@H]1[C@@]24O3` were, in that order, > 200 µM and > 200 µM. The like results for `O=C(O)CCC(=O)NC(c1ccccc1)(c1ccccc1)c1ccccc1` were, in that order, > 200 µM and > 200 µM. `COc1c2c(cc3oc(C)c(C)c(=O)c13)OC(C)(C)C=C2`: the EC50 is > 200 µM and the IC50 stood at 81.3 µM. The like results for `C(=C/[PH+](c1ccccc1)c1ccccc1)/[PH+](c1ccccc1)c1ccccc1.[C-]#[O+].[C-]#[O+].[C-]#[O+].[C-]#[O+].[C-]#[O+].[Mo+2].[Mo+4].[c-]1[c-][c-][cH-][c-]1.[c-]1[c-][c-][cH-][c-]1` were, in that order, > 6.03 µM and 3.31 µM. With `Cc1nc2ccccc2n1C(=O)c1c(F)c(F)c(F)c(F)c1F`, the EC50 is > 200 µM and the IC50 turned out to be 33.9 µM. The like results for `CC(=O)Nc1ccc(/C=C2\C=Cc3ccccc32)cc1` were, in that order, > 20 µM and 13.2 µM. The like results for `CC(C)(C)[Si](C)(C)OCC1OC(n2ccc(=O)[nH]c2=O)C(O[Si](C)(C)C(C)(C)C)[C@]12O[C@@H]2CO` (stereo partly drawn) were, in that order, > 200 µM and 13.2 µM. The like results for `COC1(OC)N=C(N)C2(C#N)/C(=N/N(C)C)CC(C)C12C#N` (stereo not drawn) were, in that order, > 200 µM and > 200 µM. Turning to `c1cc(CN2CCNCCNCCNCC2)cc(CN2CCNCCNCCNCC2)c1`, the EC50 was > 200 µM and the IC50 was > 200 µM. Turning to `O=C1C2CCCC1C1/C(=[N+](/[O-])O)C=C([N+](=O)[O-])C2C1[N+](=O)[O-]` (stereo not drawn), the EC50 is > 234 µM and the IC50 was > 234 µM. Turning to `CC(=O)/C(=C/c1ccc(C#N)cc1)C(=O)c1ccccc1`, the EC50 is > 95.5 µM and the IC50 was 16.6 µM. The like results for `[N-]=[N+]=NC1(Cc2ccccc2)C(=O)Nc2ccccc2C1=O` (stereo not drawn) were, in that order, > 200 µM and 105 µM. Turning to `[O-]/N=N\c1on[n+](CCc2ccccc2)c1Cc1c(/N=N/[O-])on[n+]1CCc1ccccc1`, the result was inactive. For `CC(C)N(C(=O)C12C3C4C1C1C2C3C41C(O)C(C)(C)C)C(C)C` (stereo not drawn), the EC50 is 3.02 µM and the IC50 stood at 12 µM. The like results for `N#Cc1ncc(C[P+](c2ccccc2)(c2ccccc2)c2ccccc2)nc1N` were, in that order, > 200 µM and 170 µM. The like results for `C=CCCCCCCCCC(=O)NCCN1CCOCC1` were, in that order, > 200 µM and > 200 µM. The like results for `CCOC(=O)/C=C/[C@H](O)[C@@H](O)/C=C/C(=O)OCC` were, in that order, > 200 µM and 17 µM. Consider `O=P1(c2ccccc2)CCCCC1`, for which the EC50 was 0.0631 µM and the IC50 was > 200 µM. The like results for `CCCC(=O)Sc1ccccc1C(=O)Nc1ccc(S(=O)(=O)NC(C)=O)cc1` were, in that order, 28.2 µM and 112 µM. For `C#CC1(O)c2ccccc2C(=O)c2ccccc21`, the outcome was inactive. Consider `CNc1ncc2nc(C(=O)O)c(=O)n(C)c2n1`, for which the EC50 is > 200 µM and the IC50 is > 200 µM. For the compound `CC(C)(C)c1nc2c(o1)C(=Nc1ccc(F)cc1)c1ccccc1C2=O`, the result was inactive.

In the case of `CCOP(C)(=O)C(Cc1c[nH]c2ccccc12)C(=O)O` (stereo not drawn), the EC50 was > 200 µM and the IC50 is > 200 µM. On to `CC(=O)OCC1=C2C(OC(=O)C(C)C)CC3(COC(C)=O)OC3/C=C\C3(C)OC3C2OC1=O` (stereo not drawn), for which the EC50 is > 200 µM and the IC50 came out at 75.9 µM. Consider `CCOC(=O)c1ccc(CS(=O)(=O)c2ccc(Cl)cc2)cc1`, for which the EC50 was > 55 µM and the concentration for half-maximal inhibition (IC50) is > 55 µM.

With `CN1CCCC(CNC2C3CC4CC(C3)CC2C4)C1` (stereo not drawn), the EC50 was > 138 µM and the IC50 was > 138 µM.

Take `c1ccc2c(c1)cc(C1NCCc3[nH]cnc31)c1ccccc12` (stereo not drawn): the EC50 is > 24 µM and the IC50 stood at 15.1 µM. The like results for `O=C(O)CSC(=S)CCCCCCCCCCC(=S)SCC(=O)O` were, in that order, > 120 µM and > 120 µM. The like results for `CNC(=O)N(CCC#N)[C@H]1CCCC[C@@H]1N(C(=O)NC)c1ccccc1` were, in that order, > 200 µM and > 200 µM. Consider `CNC(=O)N(C1=NCC(C)S1)c1ccc(C)c(C)c1` (stereo not drawn), for which the outcome was inactive. As for `O[C@H]1[C@H](O)[C@@H](Cn2nnc(-c3ccccc3)c2-c2ccccc2)OCO[C@@H]1Cn1nnc(-c2ccccc2)c1-c1ccccc1`, the EC50 was > 200 µM and the IC50 was found to be 9.55 µM. On to `CCCNC(=O)N(C(C)C)S(=O)(=O)c1ccc(Cl)cc1`, for which the outcome was inactive. On to `CC1(C)OCC(C(O)C2OC(C)(C)OC2/C=N\O)O1` (stereo not drawn), for which the EC50 is > 912 µM and the IC50 is > 912 µM. On to `CC1=NN(C(=O)c2ccccc2)C(C)C1N=Nc1ccccc1C(=O)O` (stereo not drawn), for which the result was inactive. On to `CN(C)C1C(=O)C(C(=O)NCNC(CCS(C)=O)C(=O)O)=C(O)C2(O)C(=O)C3=C(O)c4c(O)cccc4C(C)(O)C3CC12` (stereo not drawn), for which the EC50 is > 204 µM and the half-inhibitory concentration (IC50) is > 100 µM. The like results for `COc1ccc(C2=NN(C(=O)COc3ccc(Cl)cc3)C(O)(c3ccc(Cl)cc3)C2)cc1` (stereo not drawn) were, in that order, > 11 µM and > 11 µM. Regarding `O=C1CC(O)c2c(Cl)sc(Cl)c21` (stereo not drawn), the EC50 was > 200 µM and the IC50 turned out to be 5.25 µM. For `CO[C@H]1C[C@H](O[C@H]2CC[C@]3(C=O)[C@H]4CC[C@]5(C)[C@@H](C6=CC(=O)OC6)CC[C@]5(O)[C@@H]4CC[C@]3(O)C2)O[C@H](C)[C@H]1O`, the result was inactive.
